Test results from ChEMBL document CHEMBL5726098, “Arylquinazolines” (2019).
pIC50: −log10 of the molar value.

Target: DNA-dependent protein kinase catalytic subunit (Homo sapiens, UniProt P78527)
Test: DNA-PK Assay (Biochemical): The kinase assay was carried out in streptavidin-coated […] microtitre flashplates. […] The reaction was stopped using 50 μl/well of 200 mM EDTA. After incubation for a further 30 min at room temperature, the liquid was removed. Each well was washed three times with 100 μl of 0.9% saline solution. A nonspecific reaction (blank value) was determined using 10 μM of an innate kinase inhibitor. The radioactivity measurement was carried out using a TopCount. IC50 values were calculated in RS1.

Chain of DNA-dependent protein kinase catalytic subunit (P78527 whole entry): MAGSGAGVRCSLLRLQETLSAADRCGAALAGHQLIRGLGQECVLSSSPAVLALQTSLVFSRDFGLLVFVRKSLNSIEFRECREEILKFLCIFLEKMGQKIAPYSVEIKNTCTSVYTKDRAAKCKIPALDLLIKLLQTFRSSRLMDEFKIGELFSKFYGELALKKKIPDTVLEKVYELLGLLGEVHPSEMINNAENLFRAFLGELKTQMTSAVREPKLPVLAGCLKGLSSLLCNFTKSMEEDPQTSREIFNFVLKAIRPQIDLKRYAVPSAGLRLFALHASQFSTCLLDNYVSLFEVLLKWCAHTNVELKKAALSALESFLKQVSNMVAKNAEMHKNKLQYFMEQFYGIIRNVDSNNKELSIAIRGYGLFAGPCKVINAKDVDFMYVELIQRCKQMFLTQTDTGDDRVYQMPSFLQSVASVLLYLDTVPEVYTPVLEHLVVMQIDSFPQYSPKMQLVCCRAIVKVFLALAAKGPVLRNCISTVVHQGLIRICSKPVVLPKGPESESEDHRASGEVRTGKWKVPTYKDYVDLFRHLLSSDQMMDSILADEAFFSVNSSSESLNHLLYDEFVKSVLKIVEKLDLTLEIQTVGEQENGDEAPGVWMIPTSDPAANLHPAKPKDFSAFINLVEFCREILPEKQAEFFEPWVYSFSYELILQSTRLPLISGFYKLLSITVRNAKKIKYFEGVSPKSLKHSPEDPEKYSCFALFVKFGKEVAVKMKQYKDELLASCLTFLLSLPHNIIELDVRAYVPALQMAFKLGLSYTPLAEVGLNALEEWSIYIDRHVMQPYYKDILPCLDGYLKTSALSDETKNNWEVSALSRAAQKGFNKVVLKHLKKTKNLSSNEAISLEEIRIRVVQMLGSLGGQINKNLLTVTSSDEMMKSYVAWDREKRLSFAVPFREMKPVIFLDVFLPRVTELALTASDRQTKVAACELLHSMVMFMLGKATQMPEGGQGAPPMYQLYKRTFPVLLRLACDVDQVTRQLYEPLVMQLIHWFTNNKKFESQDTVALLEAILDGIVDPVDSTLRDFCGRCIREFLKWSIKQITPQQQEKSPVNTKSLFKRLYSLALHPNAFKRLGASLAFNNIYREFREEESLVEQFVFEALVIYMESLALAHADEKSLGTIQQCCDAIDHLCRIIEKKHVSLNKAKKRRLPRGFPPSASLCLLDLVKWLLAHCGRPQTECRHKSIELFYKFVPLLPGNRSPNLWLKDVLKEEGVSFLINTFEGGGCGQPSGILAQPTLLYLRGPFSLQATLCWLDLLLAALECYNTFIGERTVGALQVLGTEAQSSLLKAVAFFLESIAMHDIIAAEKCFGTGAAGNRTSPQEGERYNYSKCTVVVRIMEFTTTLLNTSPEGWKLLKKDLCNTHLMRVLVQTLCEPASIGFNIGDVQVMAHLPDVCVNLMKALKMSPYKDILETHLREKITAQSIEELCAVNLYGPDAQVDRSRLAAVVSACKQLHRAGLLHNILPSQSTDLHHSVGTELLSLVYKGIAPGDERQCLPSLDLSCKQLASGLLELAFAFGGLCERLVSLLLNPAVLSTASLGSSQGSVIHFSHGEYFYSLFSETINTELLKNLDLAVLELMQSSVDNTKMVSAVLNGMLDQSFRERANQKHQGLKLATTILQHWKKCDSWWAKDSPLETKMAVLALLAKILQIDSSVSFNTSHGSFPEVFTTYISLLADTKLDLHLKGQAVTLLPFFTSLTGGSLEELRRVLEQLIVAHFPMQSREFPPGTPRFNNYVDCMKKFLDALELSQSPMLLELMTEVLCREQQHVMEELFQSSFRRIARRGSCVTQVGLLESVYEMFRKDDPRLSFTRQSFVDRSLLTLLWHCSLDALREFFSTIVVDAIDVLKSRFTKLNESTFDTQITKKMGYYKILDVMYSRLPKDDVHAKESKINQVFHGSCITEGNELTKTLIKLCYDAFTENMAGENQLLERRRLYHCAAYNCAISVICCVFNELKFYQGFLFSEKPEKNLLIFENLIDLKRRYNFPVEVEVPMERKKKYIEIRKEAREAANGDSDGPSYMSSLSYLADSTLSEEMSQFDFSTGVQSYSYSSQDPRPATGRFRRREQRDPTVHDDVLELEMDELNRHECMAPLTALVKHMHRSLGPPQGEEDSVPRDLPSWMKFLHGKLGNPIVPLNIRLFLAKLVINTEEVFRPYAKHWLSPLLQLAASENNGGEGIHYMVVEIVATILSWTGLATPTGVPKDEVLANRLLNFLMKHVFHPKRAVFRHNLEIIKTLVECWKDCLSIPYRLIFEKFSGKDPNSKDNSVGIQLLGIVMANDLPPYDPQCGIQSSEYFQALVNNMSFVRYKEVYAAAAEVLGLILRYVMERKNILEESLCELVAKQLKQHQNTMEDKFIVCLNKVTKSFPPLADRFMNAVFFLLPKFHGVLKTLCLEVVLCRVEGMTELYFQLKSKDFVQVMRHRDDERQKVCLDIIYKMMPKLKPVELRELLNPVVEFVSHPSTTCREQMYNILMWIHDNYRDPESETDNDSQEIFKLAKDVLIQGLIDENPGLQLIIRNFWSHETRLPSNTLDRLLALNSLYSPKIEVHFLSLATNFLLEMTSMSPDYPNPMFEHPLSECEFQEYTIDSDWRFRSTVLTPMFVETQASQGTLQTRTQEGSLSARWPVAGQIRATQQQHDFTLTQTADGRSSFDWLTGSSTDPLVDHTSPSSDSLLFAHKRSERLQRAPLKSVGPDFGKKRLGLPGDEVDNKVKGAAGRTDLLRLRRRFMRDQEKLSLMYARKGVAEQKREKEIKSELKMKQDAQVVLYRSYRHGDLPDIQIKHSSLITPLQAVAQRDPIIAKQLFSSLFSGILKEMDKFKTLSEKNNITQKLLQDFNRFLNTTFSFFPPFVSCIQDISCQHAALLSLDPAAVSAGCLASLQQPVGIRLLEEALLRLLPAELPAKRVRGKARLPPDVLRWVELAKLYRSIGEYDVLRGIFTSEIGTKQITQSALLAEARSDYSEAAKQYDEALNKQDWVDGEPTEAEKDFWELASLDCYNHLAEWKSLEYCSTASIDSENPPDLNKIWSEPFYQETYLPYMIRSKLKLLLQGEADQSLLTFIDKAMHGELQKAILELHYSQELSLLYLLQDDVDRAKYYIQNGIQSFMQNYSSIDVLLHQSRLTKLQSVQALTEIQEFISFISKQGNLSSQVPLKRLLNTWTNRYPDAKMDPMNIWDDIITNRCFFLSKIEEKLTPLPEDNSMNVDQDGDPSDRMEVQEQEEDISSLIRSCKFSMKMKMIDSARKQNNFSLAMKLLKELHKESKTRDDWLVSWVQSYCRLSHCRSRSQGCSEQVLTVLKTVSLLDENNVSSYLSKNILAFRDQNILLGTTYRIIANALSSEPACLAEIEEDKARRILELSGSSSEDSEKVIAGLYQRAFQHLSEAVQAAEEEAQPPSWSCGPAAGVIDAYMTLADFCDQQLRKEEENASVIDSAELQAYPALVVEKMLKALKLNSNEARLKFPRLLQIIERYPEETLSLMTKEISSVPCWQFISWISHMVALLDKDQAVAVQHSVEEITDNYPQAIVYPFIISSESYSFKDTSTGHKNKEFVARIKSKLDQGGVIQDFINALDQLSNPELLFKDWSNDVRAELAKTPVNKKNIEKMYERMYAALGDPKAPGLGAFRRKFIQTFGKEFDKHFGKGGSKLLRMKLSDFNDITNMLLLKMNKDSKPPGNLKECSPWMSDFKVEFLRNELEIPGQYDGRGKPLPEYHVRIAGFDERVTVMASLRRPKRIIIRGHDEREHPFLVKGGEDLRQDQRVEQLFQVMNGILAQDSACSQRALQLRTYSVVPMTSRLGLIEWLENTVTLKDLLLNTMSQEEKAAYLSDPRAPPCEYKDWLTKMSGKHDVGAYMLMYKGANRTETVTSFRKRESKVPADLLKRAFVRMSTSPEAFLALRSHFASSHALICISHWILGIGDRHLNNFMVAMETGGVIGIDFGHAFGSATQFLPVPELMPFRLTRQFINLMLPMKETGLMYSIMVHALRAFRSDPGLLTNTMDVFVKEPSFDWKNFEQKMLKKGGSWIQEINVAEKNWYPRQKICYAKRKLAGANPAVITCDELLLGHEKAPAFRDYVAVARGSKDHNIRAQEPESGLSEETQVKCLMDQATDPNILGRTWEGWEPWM

In the case of `NC(=O)C(c1cc(-c2ncnc3cc(N4CCOCC4)ccc23)c(F)cc1Cl)c1ncnn2cccc12` (configuration not stated), the pIC50 was less than 7.52.

In the case of `OCc1csc(C(O)c2cc(-c3ncnc4cc(N5C6CCC5COC6)ccc34)c(F)cc2Cl)n1` (configuration not stated), the pIC50 was less than 7.52.
